Measurements reported in ChEMBL document CHEMBL1201862, “PubChem BioAssay data set” (2004).
Several values for one entry are separate records, joined by “and”; a condition that tells them apart may be missing. Equal entries are not always repeated. Activity calls are given as the source filed them.

How the values were obtained:
Cytochrome P450 2D6 = Cytochrome P450 2D6 (Homo sapiens, UniProt P10635);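 note: CYP2D6 member of a cytochrome P450 panel assay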
Cytochrome P450 1A2 = molecular target: T1, Cytochrome P450 1A2 (Homo sapiens, UniProt P05177);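 note: PubChem cytochrome P450 panel assay, CYP1A2 panel member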
T1 sequence (P05177 whole entry): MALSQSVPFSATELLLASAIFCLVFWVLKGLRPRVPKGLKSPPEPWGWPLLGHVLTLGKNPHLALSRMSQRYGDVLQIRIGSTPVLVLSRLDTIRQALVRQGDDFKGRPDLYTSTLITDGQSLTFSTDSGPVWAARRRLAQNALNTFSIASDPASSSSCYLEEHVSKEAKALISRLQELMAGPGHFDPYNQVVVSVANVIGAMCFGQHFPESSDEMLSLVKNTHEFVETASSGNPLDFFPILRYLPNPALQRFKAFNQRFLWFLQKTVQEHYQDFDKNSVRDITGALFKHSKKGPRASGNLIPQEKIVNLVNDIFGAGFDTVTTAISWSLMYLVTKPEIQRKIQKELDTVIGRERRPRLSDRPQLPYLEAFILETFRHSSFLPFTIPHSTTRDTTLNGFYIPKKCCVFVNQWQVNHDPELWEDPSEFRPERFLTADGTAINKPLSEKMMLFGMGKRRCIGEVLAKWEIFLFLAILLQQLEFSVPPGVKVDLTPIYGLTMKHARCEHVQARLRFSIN

[1] = molecular target: FAD-linked sulfhydryl oxidase ALR (Homo sapiens, UniProt P55789); test: ALR-catalysed DTT oxidation blockers – biochemical, H2O2 detection, luminescence, cherry-pick, dose response (AID 493248)
Chain of FAD-linked sulfhydryl oxidase ALR (P55789 whole entry): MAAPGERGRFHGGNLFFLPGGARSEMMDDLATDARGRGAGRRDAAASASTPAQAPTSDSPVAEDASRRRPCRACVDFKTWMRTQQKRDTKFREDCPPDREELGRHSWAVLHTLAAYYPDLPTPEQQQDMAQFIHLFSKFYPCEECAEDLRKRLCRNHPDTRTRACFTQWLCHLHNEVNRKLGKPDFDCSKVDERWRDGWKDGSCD

Large T antigen = Large T antigen (Simian virus 40, UniProt P03070); type: functional, Betapolyomavirus macacae;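 note: Confirmatory-stage PubChem screen for compounds that inhibit SV40 T antigen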
Chain of Large T antigen (P03070 whole entry): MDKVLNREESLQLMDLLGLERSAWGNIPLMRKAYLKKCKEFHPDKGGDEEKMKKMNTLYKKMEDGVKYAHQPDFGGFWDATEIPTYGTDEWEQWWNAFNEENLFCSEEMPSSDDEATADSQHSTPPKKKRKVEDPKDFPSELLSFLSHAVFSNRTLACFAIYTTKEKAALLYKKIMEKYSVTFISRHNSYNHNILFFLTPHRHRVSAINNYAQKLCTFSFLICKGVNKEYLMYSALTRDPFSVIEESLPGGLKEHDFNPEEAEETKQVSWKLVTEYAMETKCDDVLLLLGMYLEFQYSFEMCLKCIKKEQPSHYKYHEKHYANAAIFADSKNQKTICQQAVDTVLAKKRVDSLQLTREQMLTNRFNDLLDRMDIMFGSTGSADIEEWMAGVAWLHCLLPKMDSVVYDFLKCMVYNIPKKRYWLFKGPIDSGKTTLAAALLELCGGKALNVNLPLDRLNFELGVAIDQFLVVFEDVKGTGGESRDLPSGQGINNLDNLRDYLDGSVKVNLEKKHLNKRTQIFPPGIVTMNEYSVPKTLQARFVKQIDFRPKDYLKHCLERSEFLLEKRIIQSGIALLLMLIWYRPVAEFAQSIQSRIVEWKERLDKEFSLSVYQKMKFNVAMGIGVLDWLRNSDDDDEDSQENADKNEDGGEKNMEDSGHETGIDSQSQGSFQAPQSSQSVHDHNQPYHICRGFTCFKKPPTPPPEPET

Cytochrome P450 3A4 = Cytochrome P450 3A4 (Homo sapiens, UniProt P08684);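 note: CYP3A4 tested as one member of a cytochrome P450 panel screen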
Chain of Cytochrome P450 3A4 (P08684 whole entry): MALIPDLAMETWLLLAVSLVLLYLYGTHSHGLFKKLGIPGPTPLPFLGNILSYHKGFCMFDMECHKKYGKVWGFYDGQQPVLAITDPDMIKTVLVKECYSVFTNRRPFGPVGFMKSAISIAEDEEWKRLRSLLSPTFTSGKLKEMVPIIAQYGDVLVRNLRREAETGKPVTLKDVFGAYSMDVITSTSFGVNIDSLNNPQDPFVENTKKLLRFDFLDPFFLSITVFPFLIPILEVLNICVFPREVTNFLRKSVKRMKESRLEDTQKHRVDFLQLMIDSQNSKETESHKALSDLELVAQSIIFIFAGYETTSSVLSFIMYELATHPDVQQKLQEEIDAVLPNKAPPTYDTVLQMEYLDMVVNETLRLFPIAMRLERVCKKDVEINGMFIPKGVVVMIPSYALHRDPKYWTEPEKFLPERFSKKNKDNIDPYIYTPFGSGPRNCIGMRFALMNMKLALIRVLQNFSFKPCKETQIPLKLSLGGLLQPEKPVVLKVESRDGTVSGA

H9c2 = test: cells; type: functional, cell-based; details: Rattus norvegicus, H9c2, Myocardium;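 note: confirmatory concentration-response retest of ultra-high-throughput screening hits for modulation of myocardial damage; cell death induced by hydrogen peroxide oxidative stress; compound pretreatment for 60 min then peroxide exposure for 2 h; potency is for protecting the cells against peroxide damage rather than for killing them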
[2] = molecular target: T2, RNA-binding protein pos-1 (Caenorhabditis elegans, UniProt G5EF15); test: disruptors of C. elegans POS-1 RNA interaction – biochemical, fluorescence polarization, dose response (AID 1964);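 note: purified POS-1 fused to maltose binding protein made in E. coli; potency of compounds blocking POS-1 binding to fluorescent RNA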
T2 sequence (G5EF15 whole entry): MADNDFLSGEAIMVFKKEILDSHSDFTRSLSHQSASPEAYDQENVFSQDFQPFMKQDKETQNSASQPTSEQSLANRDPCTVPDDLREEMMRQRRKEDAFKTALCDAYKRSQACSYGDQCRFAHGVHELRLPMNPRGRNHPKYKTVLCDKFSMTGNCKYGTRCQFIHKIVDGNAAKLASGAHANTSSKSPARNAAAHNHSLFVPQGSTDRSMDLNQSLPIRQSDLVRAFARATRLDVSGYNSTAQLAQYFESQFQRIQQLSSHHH

[3] = molecular target: T3, Zinc finger protein mex-5 (Caenorhabditis elegans, UniProt Q9XUB2); test: potency of MEX-5 RNA-binding blockers – biochemical, C. elegans, fluorescence polarization, dose response (AID 1960)
T3 sequence (Q9XUB2 whole entry): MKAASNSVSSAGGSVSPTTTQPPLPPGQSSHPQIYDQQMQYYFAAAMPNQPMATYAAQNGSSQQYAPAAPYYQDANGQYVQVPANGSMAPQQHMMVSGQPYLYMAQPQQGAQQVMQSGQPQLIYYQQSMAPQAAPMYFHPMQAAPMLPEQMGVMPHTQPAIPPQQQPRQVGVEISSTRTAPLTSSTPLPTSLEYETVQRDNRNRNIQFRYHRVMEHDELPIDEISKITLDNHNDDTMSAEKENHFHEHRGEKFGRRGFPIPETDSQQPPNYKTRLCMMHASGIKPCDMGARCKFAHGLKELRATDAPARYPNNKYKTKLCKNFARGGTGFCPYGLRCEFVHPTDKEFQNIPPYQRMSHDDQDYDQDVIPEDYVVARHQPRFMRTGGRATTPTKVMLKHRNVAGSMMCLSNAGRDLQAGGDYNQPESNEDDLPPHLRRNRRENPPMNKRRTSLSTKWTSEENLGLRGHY

[4] = molecular target: T4, Polyadenylate-binding protein 1 (Homo sapiens, UniProt P11940); test: MLLE binding blockers, Cy5 peptide tracer – biochemical, fluorescence polarization, Cy5-PAM2 peptide, secondary, miRNA deadenylation inhibitor project, dose response (AID 602260); type: functional; details: read-out: IC50_Mean
T4 sequence (P11940 whole entry, the tested form may be a part): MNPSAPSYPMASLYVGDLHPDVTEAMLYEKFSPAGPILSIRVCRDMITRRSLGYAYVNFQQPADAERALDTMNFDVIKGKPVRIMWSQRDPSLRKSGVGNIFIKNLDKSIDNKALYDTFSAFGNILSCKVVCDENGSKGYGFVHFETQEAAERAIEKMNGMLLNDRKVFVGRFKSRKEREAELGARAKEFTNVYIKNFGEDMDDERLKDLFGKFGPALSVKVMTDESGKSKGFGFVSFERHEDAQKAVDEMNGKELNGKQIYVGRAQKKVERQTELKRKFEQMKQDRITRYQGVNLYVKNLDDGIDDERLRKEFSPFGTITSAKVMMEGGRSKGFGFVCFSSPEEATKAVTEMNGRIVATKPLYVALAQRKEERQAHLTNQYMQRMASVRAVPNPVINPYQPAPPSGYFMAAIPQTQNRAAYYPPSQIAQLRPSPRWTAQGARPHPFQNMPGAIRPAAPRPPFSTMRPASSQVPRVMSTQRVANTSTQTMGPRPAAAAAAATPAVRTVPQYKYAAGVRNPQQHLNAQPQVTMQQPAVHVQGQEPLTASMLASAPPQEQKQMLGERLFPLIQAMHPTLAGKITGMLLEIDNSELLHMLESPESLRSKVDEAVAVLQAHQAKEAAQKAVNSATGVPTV

[5] = molecular target: T4, Polyadenylate-binding protein 1; test: MLLE domain peptide-binding blockers, IC50 – biochemical, fluorescence polarization, FITC-PAM2 peptide, dose response (AID 602259); type: functional; details: read-out: IC50_Mean
[6] = NIH-3T3 fibroblast cytotoxicity, dose response, cytotoxicity control, cell-based, fluorescence, Alamar Blue, secondary assay (AID 2327); type: functional;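 note: NIH-3T3 mouse fibroblasts cultured with fluconazole at 8 µg/mL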
[7] = fluconazole-exposed Candida albicans growth modulators – fluorescence, retest, confirmation (AID 2467); type: functional, cell-based
[8] = viability of PTEN-deleted HCT116 cells – cell-based, HCT116 PTEN knockout, dose response (AID 1047); type: functional;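 note: HCT116 colon tumor cells with PTEN knocked out; cells exposed to compound for 60 hours before readout; potency for loss of cell viability measured by luminescence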
[9] = viability of HCT116 lacking mutant beta-catenin – cell-based, human colon tumor, dose response (AID 1045); type: functional;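 note: HCT116 colon tumor cells with beta catenin knocked out; cells exposed to compound for 60 hours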
Cytochrome P450 2C9 = Cytochrome P450 2C9 (Homo sapiens, UniProt P11712)
Chain of Cytochrome P450 2C9 (P11712 whole entry): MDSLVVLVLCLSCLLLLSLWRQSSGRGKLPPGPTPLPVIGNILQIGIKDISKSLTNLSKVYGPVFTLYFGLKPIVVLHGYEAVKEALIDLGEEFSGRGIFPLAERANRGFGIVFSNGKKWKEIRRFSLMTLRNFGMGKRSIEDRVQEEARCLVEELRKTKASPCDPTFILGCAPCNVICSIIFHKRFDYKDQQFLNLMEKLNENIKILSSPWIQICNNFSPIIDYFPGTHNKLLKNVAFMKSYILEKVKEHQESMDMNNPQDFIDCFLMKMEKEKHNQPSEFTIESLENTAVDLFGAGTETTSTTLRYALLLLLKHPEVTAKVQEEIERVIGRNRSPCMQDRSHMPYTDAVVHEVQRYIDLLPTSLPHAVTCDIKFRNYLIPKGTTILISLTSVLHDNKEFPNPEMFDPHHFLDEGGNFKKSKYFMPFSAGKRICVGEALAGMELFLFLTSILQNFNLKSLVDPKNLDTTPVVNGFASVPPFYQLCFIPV

[10] = molecular target: T5, Rac GTPase-activating protein 1 (Homo sapiens, UniProt Q9H0H5); test: blockers of MgcRacGAP-driven Rac1 GTP hydrolysis – biochemical, ADP Hunter fluorescence, primary and confirmatory, confirmation (AID 624330); type: functional
T5 sequence (Q9H0H5 whole entry): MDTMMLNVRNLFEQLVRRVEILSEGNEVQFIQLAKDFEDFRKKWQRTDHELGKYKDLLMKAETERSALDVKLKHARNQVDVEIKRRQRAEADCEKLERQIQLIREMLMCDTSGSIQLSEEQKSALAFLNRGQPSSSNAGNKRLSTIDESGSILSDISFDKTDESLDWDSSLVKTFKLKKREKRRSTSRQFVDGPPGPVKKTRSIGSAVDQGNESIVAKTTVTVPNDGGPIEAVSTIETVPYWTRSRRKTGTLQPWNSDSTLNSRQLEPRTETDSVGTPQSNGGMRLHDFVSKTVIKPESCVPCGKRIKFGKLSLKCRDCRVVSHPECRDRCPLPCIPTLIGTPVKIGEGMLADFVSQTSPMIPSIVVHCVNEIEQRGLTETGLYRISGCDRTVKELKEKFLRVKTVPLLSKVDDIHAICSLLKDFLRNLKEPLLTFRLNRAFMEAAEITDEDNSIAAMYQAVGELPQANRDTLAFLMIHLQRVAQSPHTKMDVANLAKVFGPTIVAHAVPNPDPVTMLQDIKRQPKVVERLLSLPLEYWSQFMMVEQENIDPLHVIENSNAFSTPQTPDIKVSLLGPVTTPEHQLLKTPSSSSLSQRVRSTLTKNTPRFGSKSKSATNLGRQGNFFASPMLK

Cytochrome P450 2C19 = Cytochrome P450 2C19 (Homo sapiens, UniProt P33261); test: Cytochrome panel assay with activity outcomes. Panel member name: p450-cyp2c19 Compounds with AC50 equal or less than 10 uM are considered active; type: functional
Chain of Cytochrome P450 2C19 (P33261 whole entry): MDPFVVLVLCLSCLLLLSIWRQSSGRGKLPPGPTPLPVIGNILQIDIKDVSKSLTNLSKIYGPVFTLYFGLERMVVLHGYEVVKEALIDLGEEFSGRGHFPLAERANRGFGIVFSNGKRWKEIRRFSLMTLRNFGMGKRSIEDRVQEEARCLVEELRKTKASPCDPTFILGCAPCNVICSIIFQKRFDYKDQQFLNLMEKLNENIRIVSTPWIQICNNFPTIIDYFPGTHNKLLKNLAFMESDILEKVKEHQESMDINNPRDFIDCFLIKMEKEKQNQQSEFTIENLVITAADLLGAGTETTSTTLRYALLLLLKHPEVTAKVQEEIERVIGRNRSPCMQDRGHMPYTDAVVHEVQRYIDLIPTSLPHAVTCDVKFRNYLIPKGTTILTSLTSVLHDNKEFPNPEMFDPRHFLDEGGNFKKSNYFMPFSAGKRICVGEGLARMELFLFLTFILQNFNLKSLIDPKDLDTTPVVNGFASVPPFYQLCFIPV

Chain of Cytochrome P450 2D6 (P10635 whole entry): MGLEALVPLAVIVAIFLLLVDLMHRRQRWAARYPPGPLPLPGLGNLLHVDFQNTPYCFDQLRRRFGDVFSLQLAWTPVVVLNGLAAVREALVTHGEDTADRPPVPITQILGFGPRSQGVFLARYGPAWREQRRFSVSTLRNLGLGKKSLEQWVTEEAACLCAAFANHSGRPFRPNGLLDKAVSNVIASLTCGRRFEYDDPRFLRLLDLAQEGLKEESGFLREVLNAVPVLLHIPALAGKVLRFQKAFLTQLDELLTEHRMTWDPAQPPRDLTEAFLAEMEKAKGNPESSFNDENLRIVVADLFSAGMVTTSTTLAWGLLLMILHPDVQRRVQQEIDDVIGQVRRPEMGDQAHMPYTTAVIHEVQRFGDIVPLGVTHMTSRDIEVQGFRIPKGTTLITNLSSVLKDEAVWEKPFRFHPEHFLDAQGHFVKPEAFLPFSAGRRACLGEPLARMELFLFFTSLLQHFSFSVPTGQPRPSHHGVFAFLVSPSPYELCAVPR

Cc1nn(Cc2c(F)c(F)c(F)c(F)c2F)c(C)c1NC(=O)c1cccc(COc2ccccc2Cl)c1
AC50 (Cytochrome P450 2D6): 0.794 µM (inconclusive)
AC50 (Cytochrome P450 1A2): 17.8 µM (inconclusive)

COc1ccc2cc(CCl)c(Cl)nc2c1
AC50 [1]: 5.78 µM (active)

CC(=O)Nc1ccc(N2CCCCC2)cc1
IC50 (Large T antigen): 13.2 µM (active)
AC50 [1]: 2.96 µM (active)
AC50 (Cytochrome P450 3A4): 251 nM (inconclusive)

CC(=O)Nc1ccc(-n2cc(-c3ccccc3)[nH]c2=S)cc1
AC50 [1]: 6.42 µM (active)

Cc1ccccc1C(C(=O)NCc1ccccc1)N(Cc1ccco1)C(=O)c1ccccn1 (stereo not given)
IC50 (H9c2): > 79 µM (inactive)

O=C(NCc1ccccn1)C(=O)NCC(c1ccco1)N1CCN(c2ccc(F)cc2)CC1 (stereo not given)
AC50 [1]: 13.2 µM (active)

CCn1c(SCC(=O)N2CCN(c3ccccc3)CC2)nc2c(c1=O)SC(C)C2 (stereo not given)
IC50 (H9c2): 11.9 µM (active)

CN(C)Cc1ccccc1-c1cncnc1NC1CC1
AC50 (Cytochrome P450 2D6): 25.1 µM (inconclusive)

N#CC1=C(N)C2=C(N3CCCCC3)CCCC2C1(C#N)C#N (stereo not given)
EC50 [2]: 89.4 µM (active)
EC50 [3]: 77.1 µM (active)
IC50 (Large T antigen): 9.99 µM (active)
IC50 [4]: > 66 µM (inactive)
IC50 [5]: > 66 µM (inactive)

CC(C)(C)NC(=O)COC(=O)c1c2c(nc3ccccc13)CCC2
IC50 (H9c2): 6.79 µM (active)

COc1ccc2nc(Nc3ccccc3OC)sc2c1
AC50 [1]: 1.71 µM (active)

O=C1CSC(c2ccccc2[N+](=O)[O-])N1c1cccc(F)c1 (stereo not given)
AC50 [1]: 0.689 µM (active)

Cc1ccc(SCC(=O)Nc2ccc3c(c2)C(=O)N(C)C3=O)cc1
EC50 [6]: > 150 µM (inactive)
EC50 [7]: > 38 µM (not active)

Cc1ccc(S(=O)(=O)NC(CC(C)C)C(=O)Oc2ccc3c4c(c(=O)oc3c2)CCC4)cc1 (stereo not given)
AC50 (Cytochrome P450 2D6): 15.8 µM (inconclusive)

Cc1ccc(C)c(NC(=O)C(Sc2ncnc3ccccc23)c2ccccc2)c1 (stereo not given)
EC50 [8]: 111 µM (active)
EC50 [9]: 126 µM (active)
IC50 (H9c2): 29.1 µM (active)

O=C(NCc1ccco1)c1ccccc1NS(=O)(=O)c1ccc(Br)s1
EC50 [6]: > 160 µM (inactive)
EC50 [7]: 2.35 µM (active)
AC50 (Cytochrome P450 1A2): 14.1 µM (inconclusive)

CCCC(=O)Nc1ccc(N2CCN(CC)CC2)c(Cl)c1
AC50 (Cytochrome P450 2D6): 20 µM (inconclusive)
AC50 (Cytochrome P450 2C9): 178 nM (inconclusive)

Cc1ccc(NC(=O)c2cc(-c3cccs3)nc3ccccc23)nc1
IC50 (H9c2): > 79 µM (inactive)

COC(=O)CC1SC(=O)NC1=Nc1ccc(O)cc1 (stereo not given)
IC50 (Large T antigen): 16.8 µM (active)
IC50 [10]: 52.9 µM (active)

COc1ccc(Cl)cc1NC(=O)CN(C)C(=O)CCc1nc(O)c2ccccc2n1
IC50 (H9c2): > 79 µM (inactive)

Cc1ccc(-c2csc(N)n2)s1
AC50 [1]: 0.732 µM (active)

CC1CCCC(C)N1C(=O)c1ccccc1Nc1ccc(SC(F)F)cc1 (stereo not given)
AC50 (Cytochrome P450 2D6): 0.631 µM (inconclusive)
AC50 (Cytochrome P450 1A2): 17.8 µM (inconclusive)

O=C(NC(Cc1ccccc1)C(=O)NCc1ccccn1)c1ccco1 (stereo not given)
EC50 [6]: > 150 µM (inactive)
EC50 [7]: > 38 µM (not active)

CC(CCc1ccccc1)NC(=O)CN1CCN(c2ccc(O)cc2)CC1 (stereo not given)
EC50 [6]: 36.2 µM (active)

CC(=O)c1ccc(N2CCN(C(=O)c3cc(-c4cccnc4)nc4ccc(Br)cc34)CC2)cc1
IC50 (H9c2): > 79 µM (inactive)

Cc1ccc(-c2nnc(O)c3ccccc23)cc1S(=O)(=O)NC(C)(C)C
IC50 (H9c2): > 79 µM (inactive)

CC(=O)Oc1ccc(-c2cccc(C(=O)N(C)c3ccc(O)cc3)c2)cc1
AC50 [1]: 22.9 µM (active)

O=C(COc1ccccc1Cl)NNC(=O)Cn1[nH]c(=O)c2ccccc2c1=O
IC50 (H9c2): > 79 µM (inactive)

COC(=O)Cc1cc(=O)n(-c2nc3ccccc3s2)[nH]1
EC50 [6]: > 150 µM (inactive)
EC50 [7]: 21.7 µM (active)

C/C(=N\NC(=O)CCC(=O)Nc1ccc(C)c(C)c1)C1CC1
EC50 [6]: > 150 µM (inactive)
EC50 [7]: > 38 µM (not active)

COc1cc(/C=N/NC(=O)c2cccc([N+](=O)[O-])c2)ccc1O
IC50 (Large T antigen): 5.73 µM (active)
IC50 [10]: 29 µM (active)

CN(C)c1nc(Oc2ccc(/C=N/O)cc2)nc(N(C)C)n1
AC50 [1]: 0.156 µM (active)

OC(c1ccccc1)(c1ccccc1)C1CCNCC1 [AZACYCLONOL]
AC50 (Cytochrome P450 2D6): 15.8 µM (inconclusive)

COc1ccc(NC(=O)c2ccc(-c3ccc(-c4noc(C)n4)cc3C)cc2)cc1N1CCN(C)CC1 [GR-127935]
AC50 (Cytochrome P450 2D6): 20 µM (inconclusive) and 39.8 µM (inconclusive)

CCCOc1ccc(C(=O)OCCN(CC)CC)cc1N [PROPARACAINE]
AC50 (Cytochrome P450 2C19): inconclusive
AC50 (Cytochrome P450 2D6): 6.31 µM (inconclusive)
